Columns and labels:
[1] = compared with other 5-HTR2B antagonists; cited from earlier work
[2] = test system: tumor-infiltrating immune cells in MC38 tumor; assay: Tumor-infiltrating immune cells in MC38 tumor (flow cytometry / immunohistochemistry); format: in vivo, C57BL/6 mice
Method: FIG. 7 depicts that antagonizing the 5-HTR2B in mice inhibits breast and colon tumor growth: (A) MC38 colon cancer cells were injected subcutaneously into the right flank of C57BL/6 mice. […] Tumor volumes were measured and plotted. (B) MC38 colon cancer cells were injected subcutaneously into the right flank of C57BL/6 mice. After seven days when tumors became palpable, one group was treated with 5-HTR7 antagonist SB-269970 (n=6 mice; 3 mg/kg/day) or left untreated (n=6 mice). Tumor volume was measured and plotted. (C) After seven days of the setting of tumor growth, one group was treated with a serotonin transporter blocker (SSRI) sertraline hydrochloride (n=6 mice; 15 mg/kg/week) or left untreated (n=6 mice). Tumor volume was measured and plotted. (D) C57BL/6 mice were given subcutaneously injected MC38 cells. After seven days of tumor growth, one group of mice was treated with different doses of 5-HTR2B antagonist SB-215505 (n=6). Tumor volume was measured and plotted. (E) C57BL/6 mice were given subcutaneously injected MC38 cells. After seven days of the tumor growth, one group of mice was treated with different doses of 5-HTR2B antagonist SB-215505 (n=6), one group treated with 5-HTR2B agonist BW-723C86 (n=6; 4 mg/kg/day). Tumor volume was measured and plotted. (F) MC38 cells were subcutaneously injected into C57BL/6 mice. After seven days when the tumor became palpable in mice, one group of mice was treated with FDA-approved 5-HTR2B antagonist cariprazine (Carispec; Sun pharma) via oral gavage (n=5 mice; dose 5 mg/kg body weight/day) or left untreated (n=5 mice). Tumor growth was measured and plotted. (G) Breast cancer cell lines (4T1-Luc cells) were injected into the mammary fatpad of BALB/c mice. After seven days of the tumor growth setting in mice, one group of mice was treated with 5-HTR2B antagonist SB-215505(n=5 mice) or left untreated (n=5 mice). Tumour volumes were measured and plotted. (H) Mice melanoma (B16F10 cells) were injected subcutaneously in the left flank of C57BL/6J mice. After seven days of the tumor growth setting in mice, one group of mice was treated with 5-HTR2B antagonist SB-215505(n=5 mice) or left untreated (n=5 mice). Tumour volumes were measured and plotted. (I) Statistical analysis of the flow cytometric data showing the differential expression of F4/80^+CD11B^+ macrophages within MC38 tumor following treatment with 5-HTR2B antagonist. (J) Statistical analysis of the flow cytometric data showing the differential expression of F4/80^+CD11B^+ iNOS^+ M1 macrophages within MC38 tumor following treatment 5-HTR2B antagonist. (K) Statistical analysis of the flow cytometric data showing the differential expression of F4/80^+CD1B^+ Arg1^+ M2 macrophages within MC38 tumor following treatment with 5-HTR2B antagonist. (L) Immuno-Histochemistry data of MC38 tumor tissue from control and 5-HTR2B antagonist treated mice showing expression of F4/80 (cyan), iNOS (blue), arginase 1 (green), and CD11c (red). Images are taken in […] and inset images are acquired in 600× magnification and DAPI (blue) is used as counterstain. All the images in the panel were taken at 200× magnification. The image in the inset was taken in 600× magnification. All the statistical analysis was performed using Student's ‘t’ test or two-way ANOVA using Sidak's multiple comparison test. *P<0.05; **P<0.01; […]; ****P<0.0001 Error bar represents mean±standard error of means (SEM).
FIG. 9 depicts the effect of5-HTR antagonists on the CTL response MC38 tumor model in mice: (A) Clinical data correlation study. A TIDE computational method was used to study the association between the tumor-infiltrating CD8 T cells (also known as cytotoxic T lymphocytes, CTL) level and overall subject survival in relation to the intratumoral 5-HTR2B gene expression level. […]

[3] = test system: MC38 cells; assay: MTT cell viability assay; format: cell-based, mouse; conditions: graded dose; reduced serum media; 48 hours of stimulation
Method: FIG. 6 depicts that 5-HTR2B signalling in colon cancer affects cell proliferation and viability: Colon cancer MC38 cells were treated with serotonin (100 μM), 5-HTR2B agonist (BW-723C86; 50 μM), or 5-HTR2B antagonist (SB-215505; 50 μM) for 48 hours, and cell cycle analysis was performed by propidium iodide staining using flow cytometry. MC38 cells were also treated with a graded dose of 5-HTR2B agonist (BW-723C86) or serotonin. MTT assay was performed to measure cell viability. (A) After treatment with 5-HTR2B agonist BW-723C86, serotonin, or 5-HTR2B antagonist SB-215505, the relative cell cycle analysis is shown. (B) Relative cell viability data of MC38 cells following treatment of graded doses of 5-HTR2B agonist BW-723C86 or serotonin are shown. The data shown are representative of one of the three independent experiments. (C) MC38 tumor sections from the control tumor and 5-HTR2B antagonist treated tumor were stained for CD31 and the number of CD31^+ micro-blood vessels/mm^2 of tissue sections was counted and plotted to observe angiogenesis. Error bar represents ±standard error of the mean (SEM).
MC38 cells were cultured at a density of 0.5×10^4 cells/well in 96 well plates (flat bottom) and were allowed to adhere for 24 hours. […] Then, MTT crystals were dissolved with DMSO, and the reading was taken at 590 nm in an ELISA reader (Thermofisher). […]

[4] = day 24, compared to control and SB-215505 treated tumor (FIG. 14)

| SMILES | bioavailability [1] | total CD11c+ DCs in the TME [2] | percentage of PD-L1+ CD11c+ DCs in the tumor [2, 4] | percentage of PD-L1+ arginase1+ M2 macrophages in the tumor [2, 4] | percentage of PD-L1+ total macrophages in the tumor [2, 4] | percentage of PD-L1+iNOS+ M1 macrophages in the tumor [2, 4] | percentage of total CD11b+Gr1+ MDSCs in the tumor [2, 4] | viability of MC38 cells [3] |
| --- | --- | --- | --- | --- | --- | --- | --- | --- |
| CC(C)c1cc(-c2ccc(F)c3ccccc23)nc(N)n1 [RS-127445] | higher bioavailability | reducing the total CD11c^+ DCs | much reduced percentage | much reduced percentage | much reduced percentage | much reduced percentage | much reduced percentage | – |
| CC(N)Cc1c[nH]c2ccc(OCc3cccs3)cc12 (centres unmarked) [BW-723C86] | – | – | – | – | – | – | – | enhanced the viability of MC38 cells |

Reference: patent US20240408071A1, “NOVEL COMBINATION OF SEROTONIN RECEPTOR (5-HTR2B) ANTAGONIST AND AN IMMUNOMODULATOR AND CHEMOTHERAPEUTIC DRUGS FOR INHIBITION OF CANCER” (NATIONAL CENTRE FOR CELL SCIENCE, priority 2021, published 2024)
